Source: patent US20240316022A1 (TYRA BIOSCIENCES, INC., priority 2021, published 2024)

What was measured:
Assay in all cases: Kinase binding assay (kinase-tagged T7 phage, qPCR), Kd
[1] = molecular target: T1, FGFR2 (Homo sapiens, UniProt P21802); details: read-out: FGFR2 (Kd nM)
T1 construct: made in house; host or cells: E. coli derived from BL21, infected with T7 phage
Description: (§1) Kinase-tagged T7 phage strains were prepared in an E. coli host derived from the BL21 strain. E. coli were grown to log-phase and infected with T7 phage and incubated with shaking at 32° C. until lysis. The lysates were centrifuged and filtered to remove cell debris. […] The liganded beads were blocked with excess biotin and washed with blocking buffer SeaBlock (Pierce), 1% BSA, 0.05% Tween 20, 1 mM DTT to remove unbound ligand and to reduce non-specific binding.
(§2) Kds were determined using an 11-point 3-fold compound dilution series with three DMSO control points. […] The compounds were then diluted directly into the assays such that the final concentration of DMSO was 0.9%. All reactions performed in polypropylene 384-well plate. Each was a final volume of 0.02 ml. […] The kinase concentration in the eluates was measured by qPCR.
(§3) Binding constants were calculated with a standard dose-response curve using the Hill equation: […]
(§4) The Hill Slope was set to −1. Curves were fitted using a non-linear least square fit with the Levenberg-Marquardt algorithm.

[2] = molecular target: T2, FGFR1 (Homo sapiens, UniProt P11362); details: read-out: FGFR1 (Kd nM)
T2 construct: made in house; host or cells: E. coli derived from BL21, infected with T7 phage
T2 sequence (P11362 22-822): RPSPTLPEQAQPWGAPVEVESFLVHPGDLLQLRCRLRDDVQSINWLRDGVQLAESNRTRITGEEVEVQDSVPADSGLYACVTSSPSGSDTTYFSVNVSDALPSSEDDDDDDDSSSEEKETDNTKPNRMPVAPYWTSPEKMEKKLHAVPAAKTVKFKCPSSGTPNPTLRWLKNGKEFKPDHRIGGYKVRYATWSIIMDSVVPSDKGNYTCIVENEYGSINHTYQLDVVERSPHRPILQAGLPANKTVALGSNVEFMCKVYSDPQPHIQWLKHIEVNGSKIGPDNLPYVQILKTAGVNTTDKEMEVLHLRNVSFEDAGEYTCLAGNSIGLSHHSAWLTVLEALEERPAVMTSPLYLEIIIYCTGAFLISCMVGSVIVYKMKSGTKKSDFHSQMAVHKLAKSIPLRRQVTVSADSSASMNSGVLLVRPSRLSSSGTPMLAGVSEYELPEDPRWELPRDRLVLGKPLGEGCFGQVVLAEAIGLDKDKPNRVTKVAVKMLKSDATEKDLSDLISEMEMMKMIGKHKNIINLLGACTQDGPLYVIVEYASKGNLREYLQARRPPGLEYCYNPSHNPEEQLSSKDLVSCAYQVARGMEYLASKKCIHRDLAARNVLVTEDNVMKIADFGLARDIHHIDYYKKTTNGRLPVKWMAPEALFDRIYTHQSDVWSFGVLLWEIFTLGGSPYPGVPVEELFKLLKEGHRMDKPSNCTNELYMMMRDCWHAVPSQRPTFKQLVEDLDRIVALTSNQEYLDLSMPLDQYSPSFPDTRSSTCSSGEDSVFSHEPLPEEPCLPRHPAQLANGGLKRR
Description: as §1, §2, §3, §4

[3] = molecular target: T3, FGFR4 (Homo sapiens, UniProt P22455); details: read-out: FGFR4 (Kd nM)
T3 construct: made in house; host or cells: E. coli derived from BL21, infected with T7 phage
T3 sequence (P22455 22-802): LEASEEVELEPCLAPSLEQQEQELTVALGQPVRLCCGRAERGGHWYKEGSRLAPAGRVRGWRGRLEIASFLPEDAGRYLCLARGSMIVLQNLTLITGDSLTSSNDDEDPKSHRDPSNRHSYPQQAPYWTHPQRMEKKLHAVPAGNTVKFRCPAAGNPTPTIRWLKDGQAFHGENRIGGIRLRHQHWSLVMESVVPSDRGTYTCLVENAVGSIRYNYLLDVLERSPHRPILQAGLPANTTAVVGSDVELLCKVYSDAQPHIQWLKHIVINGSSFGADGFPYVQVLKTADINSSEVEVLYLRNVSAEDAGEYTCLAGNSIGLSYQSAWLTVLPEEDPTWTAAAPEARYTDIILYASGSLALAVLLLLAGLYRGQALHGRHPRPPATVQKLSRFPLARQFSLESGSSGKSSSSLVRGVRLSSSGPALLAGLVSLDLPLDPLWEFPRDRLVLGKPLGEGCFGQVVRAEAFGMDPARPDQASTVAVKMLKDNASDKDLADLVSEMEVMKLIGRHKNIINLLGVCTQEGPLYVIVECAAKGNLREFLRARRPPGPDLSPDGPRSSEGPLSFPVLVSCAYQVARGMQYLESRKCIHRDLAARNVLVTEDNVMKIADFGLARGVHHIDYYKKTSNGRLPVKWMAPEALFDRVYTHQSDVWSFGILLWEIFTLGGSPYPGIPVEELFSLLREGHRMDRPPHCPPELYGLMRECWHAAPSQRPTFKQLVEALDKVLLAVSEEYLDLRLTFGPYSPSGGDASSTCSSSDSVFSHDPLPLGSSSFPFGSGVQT
Description: (§5) Kinase-tagged T7 phage strains were prepared in an E. coli host derived from the BL21 strain. E. coli were grown to log-phase and infected with T7 phage and incubated with shaking at 32° C. until lysis. The lysates were centrifuged and filtered to remove cell debris. Streptavidin-coated magnetic beads were treated with biotinylated small molecule ligands for 30 minutes at room temperature to generate affinity resins for kinase assays. The liganded beads were blocked with excess biotin and washed with blocking buffer SeaBlock (Pierce), 1% BSA, 0.05% Tween 20, 1 mM DTT to remove unbound ligand and to reduce non-specific binding. Binding reactions were assembled by combining kinases, liganded affinity beads, and test compounds in 1× binding buffer (20% SeaBlock, 0.17×PBS, 0.05% Tween 20, 6 mM DTT).
(§6) Test compounds were prepared as 111X stocks in 100% DMSO. Kds were determined using an 11-point 3-fold compound dilution series with three DMSO control points. All compounds for Kd measurements are distributed by acoustic transfer (non-contact dispensing) in 100% DMSO. The compounds were then diluted directly into the assays such that the final concentration of DMSO was 0.9%. All reactions performed in polypropylene 384-well plate. Each was a final volume of 0.02 ml. The assay plates were incubated at room temperature with shaking for 1 hour and the affinity beads were washed with wash buffer (1×PBS, 0.05% Tween 20). The beads were then re-suspended in elution buffer (1×PBS, 0.05% Tween 20, 0.5 μM non-biotinylated affinity ligand) and incubated at room temperature with shaking for 30 minutes. The kinase concentration in the eluates was measured by qPCR.
as §3, §4

[4] = molecular target: T4, FGFR3 (Homo sapiens, UniProt P22607); details: read-out: FGFR3 (Kd nM)
T4 construct: made in house; host or cells: E. coli derived from BL21, infected with T7 phage
T4 sequence (P22607 23-806): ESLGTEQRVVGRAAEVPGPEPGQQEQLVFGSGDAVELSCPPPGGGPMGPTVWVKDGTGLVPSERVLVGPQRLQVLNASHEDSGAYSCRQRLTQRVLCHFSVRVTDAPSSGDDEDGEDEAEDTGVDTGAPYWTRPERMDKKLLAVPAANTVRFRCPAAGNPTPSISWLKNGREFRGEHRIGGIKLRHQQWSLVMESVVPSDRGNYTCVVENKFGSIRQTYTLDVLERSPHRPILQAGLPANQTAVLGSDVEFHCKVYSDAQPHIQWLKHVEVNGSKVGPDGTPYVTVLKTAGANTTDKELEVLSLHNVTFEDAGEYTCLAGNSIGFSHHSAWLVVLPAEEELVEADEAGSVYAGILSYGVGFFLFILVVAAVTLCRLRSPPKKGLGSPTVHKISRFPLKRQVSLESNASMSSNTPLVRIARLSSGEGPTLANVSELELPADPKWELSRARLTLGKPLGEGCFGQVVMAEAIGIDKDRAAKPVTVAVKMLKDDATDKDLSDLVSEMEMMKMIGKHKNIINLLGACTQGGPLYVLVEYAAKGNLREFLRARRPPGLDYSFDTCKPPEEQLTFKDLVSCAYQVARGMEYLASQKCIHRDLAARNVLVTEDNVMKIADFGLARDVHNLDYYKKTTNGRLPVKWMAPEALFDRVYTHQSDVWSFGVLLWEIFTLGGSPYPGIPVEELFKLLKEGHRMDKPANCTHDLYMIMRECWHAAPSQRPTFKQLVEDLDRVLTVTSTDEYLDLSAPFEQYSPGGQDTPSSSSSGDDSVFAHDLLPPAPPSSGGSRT
Description: as §5, §6, §3, §4

T1 sequence (P21802 22-821): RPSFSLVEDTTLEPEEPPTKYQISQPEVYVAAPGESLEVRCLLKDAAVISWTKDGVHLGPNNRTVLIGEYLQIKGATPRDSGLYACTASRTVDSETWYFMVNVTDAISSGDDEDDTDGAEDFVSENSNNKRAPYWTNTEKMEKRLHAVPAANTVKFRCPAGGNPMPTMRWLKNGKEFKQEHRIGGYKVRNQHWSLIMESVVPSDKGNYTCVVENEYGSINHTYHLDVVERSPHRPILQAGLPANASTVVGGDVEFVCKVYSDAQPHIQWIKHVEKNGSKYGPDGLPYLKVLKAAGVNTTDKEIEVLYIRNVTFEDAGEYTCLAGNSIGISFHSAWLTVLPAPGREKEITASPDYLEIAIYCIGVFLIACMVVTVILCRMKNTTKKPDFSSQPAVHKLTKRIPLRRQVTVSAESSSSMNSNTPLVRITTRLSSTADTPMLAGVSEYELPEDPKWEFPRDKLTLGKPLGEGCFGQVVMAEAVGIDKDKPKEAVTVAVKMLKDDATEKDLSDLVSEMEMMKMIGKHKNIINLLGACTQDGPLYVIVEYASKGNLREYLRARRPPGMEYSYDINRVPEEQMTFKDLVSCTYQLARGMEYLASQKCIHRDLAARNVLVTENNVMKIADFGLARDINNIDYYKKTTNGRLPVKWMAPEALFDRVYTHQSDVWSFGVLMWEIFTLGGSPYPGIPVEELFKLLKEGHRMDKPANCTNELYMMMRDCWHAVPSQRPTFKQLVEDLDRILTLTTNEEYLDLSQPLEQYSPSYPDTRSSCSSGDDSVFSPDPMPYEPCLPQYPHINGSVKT

SMILES	Kd [1] [nM]	Kd [2] [nM]	Kd [3] [nM]	Kd [4] [nM]
CCOc1cc(-c2n[nH]c3ccc(O[C@H](C)c4c(Cl)cncc4Cl)cc23)cnc1N [Example 33, 5-[5-[(1R)-1-(3,5-Dichloro-4-pyridyl)ethoxy]-1H-indazol-3-yl]-3-ethoxy-pyridin-2-amine]	> 1000	> 1000	0.1 to 100	250 to 1000
COCCNc1cc(-c2n[nH]c3ccc(O[C@H](C)c4c(Cl)cncc4Cl)cc23)ccn1 [Example 35, (R)-4-(5-(1-(3,5-Dichloropyridin-4-yl)ethoxy)-1H-indazol-3-yl)-N-(2-methoxyethyl)pyridin-2-amine]	0.1 to 100	0.1 to 100	0.1 to 100	0.1 to 100
C[C@@H](Oc1ccc2[nH]nc(-c3ccnc(NCCO)c3)c2c1)c1c(Cl)cncc1Cl [Example 36, 2-[[4-[5-[(1R)-1-(3,5-Dichloro-4-pyridyl)ethoxy]-1H-indazol-3-yl]-2-pyridyl]amino]ethanol]	0.1 to 100	0.1 to 100	0.1 to 100	0.1 to 100
C[C@@H](Oc1ccc2[nH]nc(-c3cnc(N)c(OCC(F)(F)F)c3)c2c1)c1c(Cl)cncc1Cl [Example 37, 5-[5-[(1R)-1-(3,5-Dichloro-4-pyridyl)ethoxy]-1H-indazol-3-yl]-3-(2,2,2-trifluoroethoxy)pyridin-2-amine]	> 1000	> 1000	0.1 to 100	> 1000
C[C@@H](Oc1ccc2[nH]nc(-c3cnc4c(c3)OCC(=O)N4)c2c1)c1c(Cl)cncc1Cl [Example 38, 7-[5-[(1R)-1-(3,5-dichloro-4-pyridyl)ethoxy]-1H-indazol-3-yl]-4H-pyrido[3,2-b][1,4]oxazin-3-one]	0.1 to 100	0.1 to 100	0.1 to 100	0.1 to 100
Cc1cccc(C(=O)N2CCOc3ncc(-c4n[nH]c5ccc(O[C@H](C)c6c(Cl)cncc6Cl)cc45)cc32)n1 [Example 39, [7-[5-[(1R)-1-(3,5-dichloro-4-pyridyl)ethoxy]-1H-indazol-3-yl]-2,3-dihydro-pyrido[2,3-b][1,4]oxazin-1-yl]-(6-methyl-2-pyridyl)methanone]	> 1000	> 1000	0.1 to 100	250 to 1000
COc1cc(N)cc(-c2n[nH]c3ccc(O[C@H](C)c4c(Cl)cncc4Cl)cc23)c1 [Example 44, 3-[5-[(1R)-1-(3,5-dichloro-4-pyridyl)ethoxy]-1H-indazol-3-yl]-5-methoxy-aniline]	> 1000	> 1000	0.1 to 100	250 to 1000
COc1cc(NCc2ccccn2)cc(-c2n[nH]c3ccc(O[C@H](C)c4c(Cl)cncc4Cl)cc23)c1 [Example 46, 3-[5-[(1R)-1-(3,5-dichloro-4-pyridyl)ethoxy]-1H-indazol-3-yl]-5-methoxy-N-(2-pyridyl-methyl)aniline]	> 1000	> 1000	0.1 to 100	> 1000

Other lines, results leading:

Kd [1] [nM]	Kd [2] [nM]	Kd [3] [nM]	Kd [4] [nM]	SMILES
> 1000	250 to 1000	100 to 250	100 to 250	COc1ncc(-c2n[nH]c3ccc(O[C@H](C)c4c(Cl)cncc4Cl)cc23)cc1NC(=O)CCN(C)C [Example 31, N-[5-[5-[(1R)-1-(3,5-dichloro-4-pyridyl)ethoxy]-1H-indazol-3-yl]-2-methoxy-3-pyridyl]-3-(dimethylamino)propanamido]
> 1000	> 1000	0.1 to 100	> 1000	C[C@@H](Oc1ccc2[nH]nc(-c3cnc(N)c(OC(F)(F)F)c3)c2c1)c1c(Cl)cncc1Cl [Example 32, 5-[5-[(1R)-1-(3,5-dichloro-4-pyridyl)ethoxy]-1H-indazol-3-yl]-3-(trifluoro-methoxy)pyridin-2-amine]
250 to 1000	250 to 1000	0.1 to 100	0.1 to 100	C[C@@H](Oc1ccc2[nH]nc(-c3cnc4c(c3)N(C(=O)OCCCN(C)C)CCO4)c2c1)c1c(Cl)cncc1Cl [Example 43, 3-(dimethyl-amino)propyl 7-[5-[(1R)-1-(3,5-dichloro-4-pyridyl)ethoxy]-1H-indazol-3-yl]-2,3-dihydro-pyrido[2,3-b][1,4]oxazine-1-carboxylate]
